Assay results as given in BindingDB's records for doi:10.1021/acs.jmedchem.6b00799 (Glaxosmithkline R&D, 2016).

Target: DNA-dependent protein kinase catalytic subunit (Homo sapiens, UniProt P78527)
Experiment: Inhibition of DNA-PK (unknown origin)

Sequence of DNA-dependent protein kinase catalytic subunit (P78527 whole entry): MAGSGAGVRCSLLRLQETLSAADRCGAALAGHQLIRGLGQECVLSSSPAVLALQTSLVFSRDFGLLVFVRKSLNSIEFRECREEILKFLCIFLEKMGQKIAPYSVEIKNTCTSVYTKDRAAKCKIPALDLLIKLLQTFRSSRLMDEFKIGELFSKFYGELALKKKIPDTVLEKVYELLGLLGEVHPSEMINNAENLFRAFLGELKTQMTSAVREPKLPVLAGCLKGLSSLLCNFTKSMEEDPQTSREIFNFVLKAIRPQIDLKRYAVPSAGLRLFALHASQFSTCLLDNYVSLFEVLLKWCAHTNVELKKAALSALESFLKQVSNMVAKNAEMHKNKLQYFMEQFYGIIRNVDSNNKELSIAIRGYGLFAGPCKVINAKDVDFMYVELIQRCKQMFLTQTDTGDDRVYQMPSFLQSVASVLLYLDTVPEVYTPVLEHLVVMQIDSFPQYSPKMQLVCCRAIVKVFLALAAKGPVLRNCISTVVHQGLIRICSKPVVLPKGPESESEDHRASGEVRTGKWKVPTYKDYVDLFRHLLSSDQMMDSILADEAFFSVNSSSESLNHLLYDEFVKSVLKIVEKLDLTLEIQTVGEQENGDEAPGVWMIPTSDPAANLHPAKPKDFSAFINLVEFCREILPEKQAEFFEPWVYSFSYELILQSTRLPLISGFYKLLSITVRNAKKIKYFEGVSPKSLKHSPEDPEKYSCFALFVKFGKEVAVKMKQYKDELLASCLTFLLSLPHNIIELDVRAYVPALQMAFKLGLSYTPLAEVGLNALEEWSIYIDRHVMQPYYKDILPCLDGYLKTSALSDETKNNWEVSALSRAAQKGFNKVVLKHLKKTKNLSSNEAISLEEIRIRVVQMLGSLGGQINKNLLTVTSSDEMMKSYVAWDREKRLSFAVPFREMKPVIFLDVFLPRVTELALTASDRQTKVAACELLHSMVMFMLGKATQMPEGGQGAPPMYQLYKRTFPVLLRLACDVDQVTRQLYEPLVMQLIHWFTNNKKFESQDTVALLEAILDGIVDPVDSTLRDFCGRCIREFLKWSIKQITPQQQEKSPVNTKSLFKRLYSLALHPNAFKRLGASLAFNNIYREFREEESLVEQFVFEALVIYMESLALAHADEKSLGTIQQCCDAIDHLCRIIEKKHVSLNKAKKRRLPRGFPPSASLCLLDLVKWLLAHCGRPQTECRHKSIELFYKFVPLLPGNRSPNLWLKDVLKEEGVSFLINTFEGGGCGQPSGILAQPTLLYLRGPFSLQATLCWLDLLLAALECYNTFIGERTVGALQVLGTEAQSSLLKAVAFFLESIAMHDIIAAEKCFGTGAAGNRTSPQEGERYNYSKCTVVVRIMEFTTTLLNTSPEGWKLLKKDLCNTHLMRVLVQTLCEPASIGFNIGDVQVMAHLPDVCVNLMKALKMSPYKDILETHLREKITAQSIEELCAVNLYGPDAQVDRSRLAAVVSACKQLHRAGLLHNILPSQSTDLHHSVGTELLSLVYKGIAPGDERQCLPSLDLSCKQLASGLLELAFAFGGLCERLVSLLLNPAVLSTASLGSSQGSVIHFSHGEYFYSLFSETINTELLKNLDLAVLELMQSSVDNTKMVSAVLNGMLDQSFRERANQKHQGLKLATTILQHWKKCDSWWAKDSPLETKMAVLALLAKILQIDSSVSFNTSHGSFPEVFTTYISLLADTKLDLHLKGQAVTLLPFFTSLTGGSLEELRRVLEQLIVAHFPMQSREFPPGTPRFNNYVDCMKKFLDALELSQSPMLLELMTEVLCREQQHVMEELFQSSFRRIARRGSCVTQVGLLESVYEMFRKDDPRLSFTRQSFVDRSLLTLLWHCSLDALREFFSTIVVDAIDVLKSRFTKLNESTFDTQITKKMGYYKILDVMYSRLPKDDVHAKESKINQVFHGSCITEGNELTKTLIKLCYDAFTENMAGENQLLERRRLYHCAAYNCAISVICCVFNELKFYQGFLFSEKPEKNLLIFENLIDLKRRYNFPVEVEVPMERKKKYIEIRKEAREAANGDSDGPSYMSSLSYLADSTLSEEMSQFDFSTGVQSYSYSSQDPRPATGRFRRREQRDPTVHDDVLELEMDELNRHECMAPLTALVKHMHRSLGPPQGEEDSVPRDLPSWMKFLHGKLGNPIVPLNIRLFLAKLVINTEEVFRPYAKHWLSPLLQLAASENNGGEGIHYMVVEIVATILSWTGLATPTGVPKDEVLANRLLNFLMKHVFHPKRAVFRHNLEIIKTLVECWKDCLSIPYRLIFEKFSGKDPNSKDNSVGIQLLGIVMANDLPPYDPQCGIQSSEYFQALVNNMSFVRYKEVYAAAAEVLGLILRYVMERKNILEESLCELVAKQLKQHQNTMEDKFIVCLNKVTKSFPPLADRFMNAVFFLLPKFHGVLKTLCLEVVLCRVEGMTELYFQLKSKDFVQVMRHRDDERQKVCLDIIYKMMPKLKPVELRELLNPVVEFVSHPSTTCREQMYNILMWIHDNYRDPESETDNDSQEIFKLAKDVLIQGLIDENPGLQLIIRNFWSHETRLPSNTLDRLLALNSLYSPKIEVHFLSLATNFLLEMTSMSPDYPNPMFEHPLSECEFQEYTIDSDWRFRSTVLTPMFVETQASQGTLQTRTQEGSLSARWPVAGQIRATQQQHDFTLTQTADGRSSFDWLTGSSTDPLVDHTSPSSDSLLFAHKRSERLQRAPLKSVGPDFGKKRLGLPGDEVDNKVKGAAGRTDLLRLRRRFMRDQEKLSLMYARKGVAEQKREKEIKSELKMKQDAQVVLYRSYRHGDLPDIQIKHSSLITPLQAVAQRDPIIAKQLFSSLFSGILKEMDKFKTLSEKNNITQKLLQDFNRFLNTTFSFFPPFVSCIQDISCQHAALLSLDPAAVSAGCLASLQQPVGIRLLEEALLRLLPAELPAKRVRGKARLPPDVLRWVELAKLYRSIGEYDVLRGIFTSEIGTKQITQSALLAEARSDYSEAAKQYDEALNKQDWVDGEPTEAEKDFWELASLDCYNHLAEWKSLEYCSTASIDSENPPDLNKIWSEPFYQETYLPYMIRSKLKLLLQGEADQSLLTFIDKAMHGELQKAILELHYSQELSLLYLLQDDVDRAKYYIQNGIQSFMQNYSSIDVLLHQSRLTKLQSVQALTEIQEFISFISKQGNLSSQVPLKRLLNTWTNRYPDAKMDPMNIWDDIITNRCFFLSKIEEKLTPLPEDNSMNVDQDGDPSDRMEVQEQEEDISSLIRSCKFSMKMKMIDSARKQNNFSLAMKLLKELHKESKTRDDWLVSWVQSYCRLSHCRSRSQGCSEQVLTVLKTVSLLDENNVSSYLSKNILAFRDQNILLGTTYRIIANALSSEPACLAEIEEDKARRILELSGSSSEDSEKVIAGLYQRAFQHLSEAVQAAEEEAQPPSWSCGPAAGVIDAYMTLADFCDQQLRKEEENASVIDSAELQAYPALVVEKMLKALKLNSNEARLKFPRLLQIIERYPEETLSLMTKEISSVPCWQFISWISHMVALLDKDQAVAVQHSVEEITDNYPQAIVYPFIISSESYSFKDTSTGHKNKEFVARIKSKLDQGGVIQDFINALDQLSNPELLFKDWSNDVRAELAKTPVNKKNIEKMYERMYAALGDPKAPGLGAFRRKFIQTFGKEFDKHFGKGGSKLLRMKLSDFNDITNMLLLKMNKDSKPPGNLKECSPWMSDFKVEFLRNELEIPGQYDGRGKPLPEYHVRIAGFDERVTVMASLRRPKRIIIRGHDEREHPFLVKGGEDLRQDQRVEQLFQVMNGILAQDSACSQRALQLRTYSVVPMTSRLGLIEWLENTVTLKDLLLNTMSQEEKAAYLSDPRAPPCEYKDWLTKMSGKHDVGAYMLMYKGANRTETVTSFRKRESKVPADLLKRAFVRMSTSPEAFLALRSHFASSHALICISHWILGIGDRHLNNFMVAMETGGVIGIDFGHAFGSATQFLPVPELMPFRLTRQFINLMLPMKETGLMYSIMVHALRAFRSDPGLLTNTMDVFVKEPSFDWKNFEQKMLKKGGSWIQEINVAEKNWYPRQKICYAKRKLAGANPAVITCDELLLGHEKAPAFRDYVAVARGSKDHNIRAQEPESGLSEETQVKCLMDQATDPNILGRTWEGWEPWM

IC50: 2.51 µM
SMILES: COc1ncc(-c2cc3c(c(NC(=O)CN4CCOCC4)c2)COC3)cc1NS(C)(=O)=O
